Experimental data reported in patent US20180353460A1, “METHODS OF TREATING UROLOGICAL DISORDERS USING SARMs” (priority 2014, published 2018).
Where “and” joins values, the source holds several entries; their conditions need not be identical. Equal entries are not always repeated.

Assays:
[1] = Serum drug concentration by LC-MS/MS in ovariectomized mice; type: in vivo; conditions: female, mouse, oral, 28 days
Protocol: Six to eight week old female mice (n=5-7) purchased from JAX® Mice were ovariectomized (OVX) or sham operated. Twenty days after OVX, treatment was initiated as outlined in the table below. Compounds of Formulas IX and VIII were dissolved in DSMO/PEG 300 (15:85) and were administered by oral gavage. Body weight and MRI measurements, to evaluate total body lean mass, were recorded at the beginning and at the end of the treatment. The animals were treated for twenty-eight days and then sacrificed, pelvic floor muscles isolated, weighed and stored for RNA and protein extraction. The expression of genes involved in catabolism and anabolism of muscle was measured by mRNA analysis. The serum concentrations of the drugs were measured by LC-MS/MS. The statistical analysis was performed using JMP Pro® software utilizing one way analysis of variance.
After samples were thawed, a 100 μL aliquot of mouse serum from each sample was mixed with 200 μL acetonitrile containing 200 nM compound of Formula XIII as the internal standard. After each sample was thoroughly vortex for 15 seconds, the sample was centrifuged at 3000 rpm for 10 min. Approximately 200 μL supernatant was transferred for LC-MS/MS analysis
Stock solutions of compounds of Formulas IX and VIII were 100 μM in DMSO. A dilution of 1:50 with control mouse serum was made and 200 μL of 2 μM was added to the first micro centrifuge tube. […] Transferred 100 μL from tube 1 (2 μM) to tube 2, vortexed and continued the 2 fold dilution through tube 7. 200 μL of acetonitrile containing 200 nM compound of Formula XIII as the internal standard was added to each tube. After vortexing and centrifuging, 200 μL was transferred to LC-MS/MS analysis. The concentration of each standard curve ranged from 1 μM to 0.0078 μM.
The analysis of compounds of Formulas IX and VIII in serum was performed using LC-MS/MS system consisting of Agilent 1100 HPLC with an MDS/Sciex 4000 Q-Trap™ mass spectrometer. The separation was achieved using a C18 analytical column (Alltima™, 2.1×100 mm, 3 μm) protected by a C18 guard column (Phenomenex™ 4.6 mm ID cartridge with holder). Mobile phase was consisting of channel A (95% acetonitrile+5% water+0.1% formic acid) and channel C (95% water+5% acetonitrile+0.1% formic acid) and was delivered isocratically at a flow rate of 0.4 mL/min. The total runtime for compound of Formula IX was 4.5 min, and the volume injected was 10 μL. The total runtime for compound of Formula VIII was also 4.5 min, and the volume injected was 10.0 μL. Multiple reaction monitoring (MRM) scans were made with curtain gas at 30 for compound of Formula IX, 25 for compound of Formula VIII; collision gas at medium for compound of Formula IX, high for compound of Formula VIII; nebulizer gas and auxiliary gases at 60 and source temperature at 550° C. for both. Molecular ions were formed using an ion spray voltage (IS) of 4200 V (negative mode). Declustering potential (DP), entrance potential (EP), collision energy (CE), product ion mass, and cell exit potential (CXP) were optimized with the values of −20.0, −10.0, −30.0, and −15.0, respectively, for the mass pair 388.1/118.1 (compound of Formula IX). Declustering potential (DP), entrance potential (EP), collision energy (CE), product ion mass, and cell exit potential (CXP) were optimized with the values of −95.9, −9.94, −40.0, and −15.0, respectively, for the mass pair 354.0/118.1 (compound of Formula VIII).
Animals were sacrificed 24 h after the last dose to measure the steady state concentration.

[2] = tested on: postmenopausal women with SUI; assay: Proof of concept clinical study: quality of life questionnaires (FSFI, UDI-6, IIQ-7, MESA, PGI-I, PGI-S); type: in vivo, human
Text: Secondary Objectives: • To describe the effect of 12 weeks of treatment of Compound IX on the number of voids/day as assessed by the 3 days voiding diary. […] See Tables 2 (individual subject data) and Tables 4-6 (mean pad weight data for sites 1, 2, and 3, respectively), and FIG. 17 for mean and median reductions in pad weights from baseline to week 12 (across all sites). • To describe the effect of 12 weeks of treatment of Compound IX on SUI as assessed by the Urethral Pressure Profile (UPP). The UPP assessment was removed from the protocol because it is invasive and not standard of care. […] See summary data for all subjects across the 3 sites reported in Table 7 and FIGS. 13A and 13B. • Described is the effect of 12 weeks of treatment of Compound IX on subject reported impression of stress urinary incontinence severity as assessed by the Patient Global Impression of Severity Scale (PGI-S). See summary data for all subjects across the 3 sites reported in FIG. 12A. • Described is the effect of 12 weeks of treatment of Compound IX on subject reported impression of improvement as assessed by the Patient Global Impression of Improvement Scale (PGI-I). See summary data for all subjects across the 3 sites reported in FIG. 12B. • Described is the effect of 12 weeks of treatment of Compound IX on subject reported urogenital distress as assessed by the Urinary Distress Inventory Questionnaire (UDI-6). See summary data for all subjects across of 3 sites reported in Table 7 and FIG. 12C. • Described is the effect of 12 weeks of treatment of Compound IX on subject reported impact of urinary incontinence on daily life as assessed by the Incontinence Impact Questionnaire (IIQ-7). See summary data for all subjects across the 3 sites reported in Table 7 and FIG. 12D. • Described is the effect of 12 weeks of treatment of Compound IX on subject reported sexual function as indicated on the completion of the Female Sexual Function Index Questionnaire (FSFI). See summary data for all subjects across the 3 sites reported in Table 7 and FIG. 15. • Described is the effect of 12 weeks of treatment of Compound IX on pelvic floor muscles as measured by MRI. See FIG. 11 wherein the pelvic MRI for one representative subject on trial is reported at baseline and at 12 weeks, FIG. 16 wherein the pelvic MRI's for three representative subjects on trial are reported at baseline and at 12 weeks, and Example 19 and Table 13 which provide individual measurements of levator ani thickness, inner and outer diameter of the urethra, and endometrial thickness, and mean changes in the same from baseline to week 12.
The data were collected from 18 patients at 12 weeks. Data collection/analysis for additional secondary endpoints are ongoing. Women reported improved quality of life measurements in each of the five instruments collected in the study, including the Patient Global Impression of Improvement (PGI-I) and Female Sexual Function Index (FSFI). FIG. 15 provides the FSFI overall scores from baseline to 16 weeks.
The QOL measurements are described in greater detail above and are well-known and validated measures.

Compound | concentration at 24 h after the last dose ([1]; 0.5 mpk p.o.) [µM] | concentration at 24 h after the last dose ([1]; 2.5 mpk p.o.) [µM] | concentration at 24 h after the last dose ([1]; 5 mpk p.o.) [µM] | patients reporting moderate symptoms on PGI-S ([2]; 12 weeks, 12 patients moderate or severe at baseline, none severe at 12 weeks) [patients] | MESA Urge median score at 12 weeks ([2]; 18 patients, baseline 56) | MESA Stress median score at 12 weeks ([2]; 18 patients, baseline 79.5) | UDI-6 median score at 12 weeks ([2]; scale range 0-100, baseline 45.83) | IIQ-7 median score at 12 weeks ([2]; scale range 0-100, baseline 50.00) | FSFI median score at 12 weeks ([2]; scale range 2-36, baseline 15.90) | patients with improved PGI-I scores ([2]; week 12)
C[C@](O)(COc1ccc(C#N)cc1)C(=O)Nc1ccc(C#N)c(C(F)(F)F)c1 [Compound IX, (S)—N-(4-Cyano-3-(trifluoromethyl)phenyl)-3-(4-cyanophenoxy)-2-hydroxy-2-methylpropanamide] | 0.862 | 3.85 | 6.07 | 3 | 22 | 44.5 | 31.25 | 11.90 | 28.05 and 28.00 and 28.20 | 17 of 18
C[C@](O)(COc1ccc(C#N)cc1)C(=O)Nc1ccc(C#N)c(Cl)c1 [VIII, (S)—N-(3-Chloro-4-cyanophenyl)-3-(4-cyanophenoxy)-2-hydroxy-2-methylpropanamide] | 0.429 | 2.44 | 4.1 |  |  |  |  |  |  | 
